Columns and labels:
Assay in all cases: biochemical
Set-up in all cases: radiometric methyltransferase selectivity assay with tritiated SAM, per cent activity
Conditions in all cases: read-out: % of control remaining
SMYD3 = target: T1, SMYD3 (Homo sapiens, UniProt Q9H7B4)
T1 sequence (Q9H7B4 1-428): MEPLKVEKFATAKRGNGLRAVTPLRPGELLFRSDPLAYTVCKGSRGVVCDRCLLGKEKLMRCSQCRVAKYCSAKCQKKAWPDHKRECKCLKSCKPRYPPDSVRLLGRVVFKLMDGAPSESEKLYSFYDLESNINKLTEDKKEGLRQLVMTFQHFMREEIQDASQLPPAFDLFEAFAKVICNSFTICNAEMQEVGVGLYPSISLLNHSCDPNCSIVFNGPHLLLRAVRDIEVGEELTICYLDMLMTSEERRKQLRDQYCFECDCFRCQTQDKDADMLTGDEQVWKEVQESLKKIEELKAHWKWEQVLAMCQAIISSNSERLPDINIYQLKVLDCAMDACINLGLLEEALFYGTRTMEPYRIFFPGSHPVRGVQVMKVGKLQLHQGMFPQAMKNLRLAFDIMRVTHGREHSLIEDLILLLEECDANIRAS
Procedure: (§1) The methyltransferase selectivity was assessed at two compound concentrations of 1 and 10 μM by radiometric assays using tritiated-SAM. For methyltransferases: MLL1, MLL3, EZH1 (PRC2), and EZH2 (PRC2), G9a, GLP, SUV39H1, SUV39H2, SUV420H1, SUV420H2, SETD2, SETD8, SETDB1, SETD7, PRMT1, PRMT3, PRMT4, PRMT5/ MEP50 complex, PRMT6, PRMT7, PRMT8, PRMT9, PRDM9, SMYD2, SMYD3, DNMT1, and BCDIN3D the incorporation of a tritium-labeled methyl group into biotinylated substrate was monitored using scintillation proximity assay (SPA). Briefly, a 10 μL reaction containing ^3H-SAM and substrate at concentrations close to the apparent Km values for each enzyme (balanced conditions) was prepared. The reactions were quenched with 10 μL of 7.5 M guanidine hydrochloride; 180 μL of 20 mM Tris buffer (pH 8.0) were added, and the mixture was transferred to a 96-well FlashPlate and incubated for 1 h. The counts per minute (CPM) was measured on a TopCount plate reader. The CPM in the absence of compound or enzyme was defined as 100% activity and background (0%), respectively, for each dataset[74]–[76]. Selectivity of SGC8158 against 342 kinases was evaluated in a kinase panel TR-FRET assay at 1 and 0.1 μM compound in duplicates as described before. Briefly, tagged kinases were incubated with compound and staurosporine-based fluorescent probe where the binding was detected using Tb conjugated anti-tag antibody energy transfer to the probe. Excitation wavelength was 337 nm and fluorescent emission signal was measured for Tb (486 nm) and fluorescent probe (BODIPY, 515 nm). Specific and non-specific binding was determined in the absence and presence of unlabeled staurosporine.

PRMT5-MEP50 = PRMT5-MEP50 (Homo sapiens, UniProt O14744)
Procedure: as §1

PRMT8 = PRMT8 (Homo sapiens, UniProt Q9NR22)
Procedure: as §1

DNMT3A/3L = DNMT3A/3L (Homo sapiens, UniProt Q9Y6K1)
Procedure: as §1

BCDIN3D = target: T2, BCDIN3D (Homo sapiens, UniProt Q7Z5W3)
T2 sequence (Q7Z5W3 1-292): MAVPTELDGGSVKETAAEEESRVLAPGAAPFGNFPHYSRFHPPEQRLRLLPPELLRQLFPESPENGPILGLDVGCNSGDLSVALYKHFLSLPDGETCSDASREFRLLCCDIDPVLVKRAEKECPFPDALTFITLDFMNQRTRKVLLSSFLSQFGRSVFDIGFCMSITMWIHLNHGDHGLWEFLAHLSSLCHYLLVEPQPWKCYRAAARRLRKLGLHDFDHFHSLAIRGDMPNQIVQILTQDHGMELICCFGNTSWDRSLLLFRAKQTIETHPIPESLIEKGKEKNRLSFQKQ
Procedure: as §1

MLL3 = target: T3, MLL3 (Homo sapiens, UniProt Q8NEZ4)
T3 construct: gene KMT2C
Procedure: as §1

PRMT9 = target: T4, PRMT9 (Homo sapiens, UniProt Q6P2P2)
T4 sequence (Q6P2P2 1-845): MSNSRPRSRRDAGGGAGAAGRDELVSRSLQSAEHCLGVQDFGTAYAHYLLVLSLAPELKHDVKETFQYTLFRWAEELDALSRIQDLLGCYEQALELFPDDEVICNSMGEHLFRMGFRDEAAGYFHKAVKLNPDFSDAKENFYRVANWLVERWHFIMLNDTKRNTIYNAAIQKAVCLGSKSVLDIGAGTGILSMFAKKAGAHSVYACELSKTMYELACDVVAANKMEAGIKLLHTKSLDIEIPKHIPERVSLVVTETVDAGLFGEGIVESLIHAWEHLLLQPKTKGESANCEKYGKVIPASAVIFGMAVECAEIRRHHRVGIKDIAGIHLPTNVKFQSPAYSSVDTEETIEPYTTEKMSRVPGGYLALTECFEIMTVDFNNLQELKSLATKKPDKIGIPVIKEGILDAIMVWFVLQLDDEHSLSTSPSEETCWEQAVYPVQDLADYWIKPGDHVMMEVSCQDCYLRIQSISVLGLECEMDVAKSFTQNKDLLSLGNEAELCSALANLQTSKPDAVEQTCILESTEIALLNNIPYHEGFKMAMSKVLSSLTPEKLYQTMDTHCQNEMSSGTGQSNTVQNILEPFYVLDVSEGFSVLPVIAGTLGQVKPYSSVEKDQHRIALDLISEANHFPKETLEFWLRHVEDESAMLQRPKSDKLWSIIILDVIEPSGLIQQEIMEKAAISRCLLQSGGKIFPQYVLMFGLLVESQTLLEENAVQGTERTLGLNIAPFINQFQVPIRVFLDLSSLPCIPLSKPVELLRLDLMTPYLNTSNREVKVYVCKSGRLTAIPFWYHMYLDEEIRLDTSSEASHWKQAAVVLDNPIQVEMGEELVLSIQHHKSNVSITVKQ
Procedure: as §1

T3 sequence (Q8NEZ4 whole entry): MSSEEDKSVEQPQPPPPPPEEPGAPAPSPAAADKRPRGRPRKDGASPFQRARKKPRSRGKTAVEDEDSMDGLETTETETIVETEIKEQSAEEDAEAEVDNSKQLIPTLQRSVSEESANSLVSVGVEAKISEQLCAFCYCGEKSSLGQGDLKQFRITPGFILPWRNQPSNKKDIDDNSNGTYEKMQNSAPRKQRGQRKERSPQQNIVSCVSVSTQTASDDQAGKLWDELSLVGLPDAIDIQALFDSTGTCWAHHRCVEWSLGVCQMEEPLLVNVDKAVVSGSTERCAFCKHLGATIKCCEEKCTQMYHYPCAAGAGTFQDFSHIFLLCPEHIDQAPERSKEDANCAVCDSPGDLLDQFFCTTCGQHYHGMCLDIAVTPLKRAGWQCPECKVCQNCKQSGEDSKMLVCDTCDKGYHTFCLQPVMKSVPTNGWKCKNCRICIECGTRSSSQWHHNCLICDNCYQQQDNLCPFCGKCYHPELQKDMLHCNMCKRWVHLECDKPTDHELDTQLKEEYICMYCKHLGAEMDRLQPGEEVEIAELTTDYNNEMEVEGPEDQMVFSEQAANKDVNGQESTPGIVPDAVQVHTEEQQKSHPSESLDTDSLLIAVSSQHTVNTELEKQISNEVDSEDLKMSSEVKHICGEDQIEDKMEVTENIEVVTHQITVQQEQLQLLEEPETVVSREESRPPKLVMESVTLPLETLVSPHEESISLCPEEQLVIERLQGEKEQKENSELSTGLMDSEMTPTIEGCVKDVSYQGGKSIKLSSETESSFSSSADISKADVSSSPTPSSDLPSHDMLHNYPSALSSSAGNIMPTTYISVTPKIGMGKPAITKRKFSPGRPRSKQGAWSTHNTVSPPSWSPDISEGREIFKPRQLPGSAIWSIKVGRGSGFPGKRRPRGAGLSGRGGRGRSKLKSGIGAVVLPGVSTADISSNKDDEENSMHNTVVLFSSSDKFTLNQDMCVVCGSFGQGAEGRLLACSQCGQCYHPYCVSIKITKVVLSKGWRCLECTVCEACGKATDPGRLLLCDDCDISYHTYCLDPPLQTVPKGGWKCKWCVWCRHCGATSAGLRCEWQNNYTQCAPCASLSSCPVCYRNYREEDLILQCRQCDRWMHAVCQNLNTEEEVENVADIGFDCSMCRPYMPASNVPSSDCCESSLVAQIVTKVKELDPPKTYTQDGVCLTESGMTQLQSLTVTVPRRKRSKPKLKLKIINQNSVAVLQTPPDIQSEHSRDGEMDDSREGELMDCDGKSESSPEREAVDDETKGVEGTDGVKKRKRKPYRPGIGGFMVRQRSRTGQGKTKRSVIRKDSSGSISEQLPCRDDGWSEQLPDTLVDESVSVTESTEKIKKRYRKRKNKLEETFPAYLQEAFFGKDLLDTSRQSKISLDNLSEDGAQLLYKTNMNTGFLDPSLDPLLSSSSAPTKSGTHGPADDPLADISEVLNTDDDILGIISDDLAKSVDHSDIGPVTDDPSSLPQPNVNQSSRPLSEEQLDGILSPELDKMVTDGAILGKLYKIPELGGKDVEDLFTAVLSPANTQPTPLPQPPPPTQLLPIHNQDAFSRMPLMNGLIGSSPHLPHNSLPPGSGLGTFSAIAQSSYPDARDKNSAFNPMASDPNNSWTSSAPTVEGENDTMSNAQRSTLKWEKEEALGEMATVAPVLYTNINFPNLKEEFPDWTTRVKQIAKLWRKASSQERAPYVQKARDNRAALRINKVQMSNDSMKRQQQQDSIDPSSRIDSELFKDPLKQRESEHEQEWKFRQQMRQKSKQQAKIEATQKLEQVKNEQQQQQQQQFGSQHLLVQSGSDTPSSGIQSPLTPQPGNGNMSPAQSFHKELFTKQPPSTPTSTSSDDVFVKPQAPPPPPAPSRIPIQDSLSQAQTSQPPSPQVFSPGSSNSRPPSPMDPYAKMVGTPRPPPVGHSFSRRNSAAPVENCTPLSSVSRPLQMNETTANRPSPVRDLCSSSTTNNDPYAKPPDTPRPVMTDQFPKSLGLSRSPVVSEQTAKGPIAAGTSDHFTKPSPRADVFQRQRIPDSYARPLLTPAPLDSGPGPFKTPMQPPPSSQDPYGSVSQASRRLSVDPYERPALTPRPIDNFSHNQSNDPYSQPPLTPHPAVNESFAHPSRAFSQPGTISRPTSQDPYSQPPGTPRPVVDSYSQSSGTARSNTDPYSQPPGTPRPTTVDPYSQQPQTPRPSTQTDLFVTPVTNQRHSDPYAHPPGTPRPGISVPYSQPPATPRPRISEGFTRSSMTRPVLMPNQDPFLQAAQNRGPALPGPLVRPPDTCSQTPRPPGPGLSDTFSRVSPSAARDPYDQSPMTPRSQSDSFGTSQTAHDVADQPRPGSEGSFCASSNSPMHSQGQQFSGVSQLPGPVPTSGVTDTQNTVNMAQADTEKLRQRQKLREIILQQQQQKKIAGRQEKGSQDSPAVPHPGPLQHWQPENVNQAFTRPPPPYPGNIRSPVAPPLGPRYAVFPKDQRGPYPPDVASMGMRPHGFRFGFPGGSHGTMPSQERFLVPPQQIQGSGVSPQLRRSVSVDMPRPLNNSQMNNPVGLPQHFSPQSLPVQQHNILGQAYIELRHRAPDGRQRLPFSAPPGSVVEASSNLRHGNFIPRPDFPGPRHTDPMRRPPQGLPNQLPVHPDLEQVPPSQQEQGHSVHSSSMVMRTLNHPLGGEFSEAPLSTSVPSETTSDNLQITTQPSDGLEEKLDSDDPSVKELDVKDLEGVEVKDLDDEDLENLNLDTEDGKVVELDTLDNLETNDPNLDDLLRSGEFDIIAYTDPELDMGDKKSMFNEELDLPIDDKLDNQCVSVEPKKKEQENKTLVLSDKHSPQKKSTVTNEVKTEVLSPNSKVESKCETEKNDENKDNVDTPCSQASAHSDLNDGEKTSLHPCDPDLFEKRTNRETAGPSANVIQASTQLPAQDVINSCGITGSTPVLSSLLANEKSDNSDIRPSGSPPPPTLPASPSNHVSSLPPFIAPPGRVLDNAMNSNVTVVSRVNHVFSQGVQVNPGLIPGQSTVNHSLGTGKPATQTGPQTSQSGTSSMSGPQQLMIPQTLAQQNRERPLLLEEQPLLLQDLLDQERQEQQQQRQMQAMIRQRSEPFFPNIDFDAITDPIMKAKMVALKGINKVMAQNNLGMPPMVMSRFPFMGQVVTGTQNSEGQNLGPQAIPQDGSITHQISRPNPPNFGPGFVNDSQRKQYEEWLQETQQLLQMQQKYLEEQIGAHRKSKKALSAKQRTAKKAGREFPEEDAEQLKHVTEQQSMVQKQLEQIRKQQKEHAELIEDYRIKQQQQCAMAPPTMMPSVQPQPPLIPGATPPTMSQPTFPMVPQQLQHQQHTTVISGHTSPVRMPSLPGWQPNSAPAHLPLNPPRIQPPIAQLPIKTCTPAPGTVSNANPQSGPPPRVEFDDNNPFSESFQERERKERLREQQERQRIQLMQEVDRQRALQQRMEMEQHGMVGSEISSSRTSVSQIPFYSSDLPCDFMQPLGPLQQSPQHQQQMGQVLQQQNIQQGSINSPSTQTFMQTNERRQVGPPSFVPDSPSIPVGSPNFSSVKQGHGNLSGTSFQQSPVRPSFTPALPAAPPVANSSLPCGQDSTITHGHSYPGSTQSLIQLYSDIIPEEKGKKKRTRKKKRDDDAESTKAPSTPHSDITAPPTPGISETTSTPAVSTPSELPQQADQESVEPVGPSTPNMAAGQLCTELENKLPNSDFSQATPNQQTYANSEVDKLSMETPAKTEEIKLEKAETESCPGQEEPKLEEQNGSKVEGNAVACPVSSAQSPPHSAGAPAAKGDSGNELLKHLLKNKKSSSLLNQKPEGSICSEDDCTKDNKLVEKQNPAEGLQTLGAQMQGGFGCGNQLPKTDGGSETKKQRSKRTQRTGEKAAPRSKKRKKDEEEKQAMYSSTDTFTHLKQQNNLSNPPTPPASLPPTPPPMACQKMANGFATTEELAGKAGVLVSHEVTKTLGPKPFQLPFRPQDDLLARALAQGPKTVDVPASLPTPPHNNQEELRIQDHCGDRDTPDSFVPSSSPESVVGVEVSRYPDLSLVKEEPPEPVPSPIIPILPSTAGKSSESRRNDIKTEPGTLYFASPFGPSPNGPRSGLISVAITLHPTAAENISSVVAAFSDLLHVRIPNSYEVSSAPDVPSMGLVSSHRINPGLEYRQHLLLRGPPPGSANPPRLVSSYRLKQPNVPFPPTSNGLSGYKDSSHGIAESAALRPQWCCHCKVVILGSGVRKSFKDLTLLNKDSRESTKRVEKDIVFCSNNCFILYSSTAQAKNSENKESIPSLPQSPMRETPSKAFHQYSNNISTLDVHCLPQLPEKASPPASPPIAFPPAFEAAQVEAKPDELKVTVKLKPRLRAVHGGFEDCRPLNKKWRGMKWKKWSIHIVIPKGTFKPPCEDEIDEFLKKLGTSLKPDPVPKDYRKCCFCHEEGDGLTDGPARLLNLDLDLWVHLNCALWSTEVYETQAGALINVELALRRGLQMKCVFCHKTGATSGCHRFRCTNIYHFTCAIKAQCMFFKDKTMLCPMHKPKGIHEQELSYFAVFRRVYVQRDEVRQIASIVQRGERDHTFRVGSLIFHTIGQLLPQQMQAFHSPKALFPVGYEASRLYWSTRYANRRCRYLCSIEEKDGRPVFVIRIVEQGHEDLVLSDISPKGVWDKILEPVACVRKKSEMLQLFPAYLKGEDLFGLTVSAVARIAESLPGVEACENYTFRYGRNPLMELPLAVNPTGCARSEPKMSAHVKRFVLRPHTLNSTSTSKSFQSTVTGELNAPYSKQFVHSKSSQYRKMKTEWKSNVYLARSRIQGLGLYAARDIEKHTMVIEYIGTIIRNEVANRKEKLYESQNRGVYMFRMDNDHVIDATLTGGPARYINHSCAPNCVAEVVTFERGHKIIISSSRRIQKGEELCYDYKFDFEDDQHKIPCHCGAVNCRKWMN

Structure (SMILES)	remaining activity at 1 µM (SMYD3)	remaining activity at 10 µM (SMYD3)	remaining activity at 1 µM (PRMT5-MEP50)	remaining activity at 10 µM (PRMT5-MEP50)	remaining activity at 1 µM (PRMT8)	remaining activity at 10 µM (PRMT8)	remaining activity at 1 µM (DNMT3A/3L)	remaining activity at 10 µM (DNMT3A/3L)	remaining activity at 1 µM (BCDIN3D)	remaining activity at 10 µM (BCDIN3D)	remaining activity at 1 µM (MLL3)	remaining activity at 10 µM (MLL3)	remaining activity at 1 µM (PRMT9)	remaining activity at 10 µM (PRMT9)
Nc1ncnc2c1ncn2[C@@H]1O[C@H](CSCCCCNCc2cccc(-c3ccc(Cl)cc3)c2)[C@@H](O)[C@H]1O [SGC8158]	102%	104%	15%	2%	92%	45%	100%	99%	55%	11%	105%	105%	19%	4%
CC1(C)O[C@@H]2[C@H](O1)[C@@H](CSCCCCNCc1cccc(-c3ccc(Cl)cc3)c1)O[C@H]2n1cnc2c(N)ncnc21 [SGC8158N]	100%	102%	101%	91%	97%	97%	100%	99%	96%	94%	99%	100%	106%	95%
